Experimental data: patent US12084434B2 (Scorpion Therapeutics, Inc., priority 2021, dated 2024)
Where two headings read alike, the source gives them in different places.

What was measured:
[1] = system: T47D pAKT (S473), PI3Kα H1047R mutation present; assay: HTRF pAKT-T47D;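 also: assay medium was RPMI with 10% FBS and 0.2 units/ml bovine insulin, without phenol red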
Description: Homogenous Time-Resolved Fluorescence (HTRF)—pAKT-T47D
Compounds were assayed using homogeneous time-resolved fluorescence (HTRF).
Gibco RPMI 1640 Medium, no phenol red; Gibco RPMI 1640 Medium; Gibco Trypsin-EDTA (0.5%), no phenol red; Gibco DPBS; Trypan blue solution 0.4% (Corning); Avantor Seradigm Premium Grade Fetal Bovine Serum (FBS); Greiner 784080-384 well TC treated white plates; pAKT (Ser473) HTRF; Gibco Insulin, human recombinant, zinc solution; Gibco Recovery Cell Culture Freezing Medium; Countess II FL Automated Cell Counter (ThermoFisher); Countess II Slides (ThermoFisher); Microscope; and PHERAstar FSX Microplate Reader (BMG LABTECH, Inc.).
The scinamic cell line ID was T47D.1, the HTRF detection was pAKT (S473), a PI3Kα H1047R mutation was present, the seeding density was 5000, the timepoint was 1 hour, and the medium used was RPMI+10% FBS (no phenol red)+0.2 units/ml bovine insulin.
• The cell density was not permitted to reach 100% confluence. The cells were split 1:5 when they reached ˜80% confluence. • Cells were split twice a week (Mon and Fri). • Cells over passage 18 were not used (˜2 months of maintenance). • Antibiotics were not used for tissue culture maintenance or assays. […] Protocol Day1
The procedure was as follows: • 1. Prepared ARP: • a. Stamped 12.5 nL from 10 μmM source plate to destination plate using Echo. Sealed plate immediately and froze at −20° C. if it was not used on the same day. • b. If a frozen ARP was used, the plate was thawed and spun at 1000 rpm×1 min. • 2. Preparation of cells (adherent): • a. Aspirated media from cells. Washed cells with sterile 1XPBS. Aspirated PBS and added appropriate amount of Trypsin. • b. Once cells were fully trypsinized, added appropriate media to resuspend cells. Transferred cells to a 15 mL or 50 mL conical tube. • c. Counted cells on the Countess II Cell Counter. • 3. Plating of cells: • a. Prepared cells at appropriate plating density. Dispensed 12 μL of diluted cells per well of a Greiner 784080-384 well TC treated white plate using a Multidrop Combi to columns 1-23. Added 12 uL of appropriate phenol free media only to column 24. • b. Placed plates in 37° C. tissue culture incubator for appropriate treatment time (refer to “Assay” table). • 4. Prepared HTRF Lysis Buffer • a. Calculate the amount of HTRF lysis buffer master mix needed to perform the desired experiments plus any extra dead volume required for dispensing (4 μL required per well). […] Add 4 uL Lysis buffer master mix to all wells with sample or DMSO. Centrifuge the plates for 1 minute at 1000 rpm. • c. Incubate at room temperature for 30 minutes. • 5. Prepared HTRF Antibody • a.

[2] = biological target: T1, PI3Kα H1047R protein (p110-α H1047R complexed with truncated p85-α) (Homo sapiens, UniProt P42336, H1047R); assay: Surface Plasmon Resonance (SPR) binding, wortmannin-blocked protein; settings: Biacore 8K, ATP site blocked with 1 μM wortmannin, 25° C.
T1 construct: The protein contained a full-length p110-α subunit harboring the H1047R mutation
Description: Surface Plasmon Resonance (SPR)
SPR experiments were performed on a Biacore 8K instrument. A biotinylated recombinant PI3Kα H1047R protein was used in this study. The protein contained a full-length p110-α subunit harboring the H1047R mutation with an N-terminal AviTag, complexed with a truncated p85-α subunit (amino acid residues 322-694). The protein was first incubated with 1 μM wortmannin for 30 min at RT to covalently block the ATP binding site, then immobilized onto a streptavidin sensor chip by flowing the protein through the sensor chip at typically 20 μg/mL concentration and 2 μL/min flow rate for 1200 seconds. Compound binding affinities were measured in the multi-cycle kinetics mode, at 90 μL/min flow rate with 90 seconds association time and 240 seconds dissociation time. The running buffer contained 50 mM Tris, pH 7.5, 150 mM NaCl, 0.01% Brij35, 1 mM DTT, 1 mM MgCl2, 0.05% Tween-20 and 2% DMSO. Temperature was maintained at 25° C. during experiments.

[3] = Homo sapiens, T47D, 1 h, read-out: T47D pAKT IC50 (nM), T47D.1 cells, pAKT (S473) HTRF, 1 hour
[4] = read-out: T47D pAKT IC50, T47D.1 cells, pAKT (S473) HTRF, 1 hour

T1 sequence (P42336 whole entry H1047R, the tested form may be a part): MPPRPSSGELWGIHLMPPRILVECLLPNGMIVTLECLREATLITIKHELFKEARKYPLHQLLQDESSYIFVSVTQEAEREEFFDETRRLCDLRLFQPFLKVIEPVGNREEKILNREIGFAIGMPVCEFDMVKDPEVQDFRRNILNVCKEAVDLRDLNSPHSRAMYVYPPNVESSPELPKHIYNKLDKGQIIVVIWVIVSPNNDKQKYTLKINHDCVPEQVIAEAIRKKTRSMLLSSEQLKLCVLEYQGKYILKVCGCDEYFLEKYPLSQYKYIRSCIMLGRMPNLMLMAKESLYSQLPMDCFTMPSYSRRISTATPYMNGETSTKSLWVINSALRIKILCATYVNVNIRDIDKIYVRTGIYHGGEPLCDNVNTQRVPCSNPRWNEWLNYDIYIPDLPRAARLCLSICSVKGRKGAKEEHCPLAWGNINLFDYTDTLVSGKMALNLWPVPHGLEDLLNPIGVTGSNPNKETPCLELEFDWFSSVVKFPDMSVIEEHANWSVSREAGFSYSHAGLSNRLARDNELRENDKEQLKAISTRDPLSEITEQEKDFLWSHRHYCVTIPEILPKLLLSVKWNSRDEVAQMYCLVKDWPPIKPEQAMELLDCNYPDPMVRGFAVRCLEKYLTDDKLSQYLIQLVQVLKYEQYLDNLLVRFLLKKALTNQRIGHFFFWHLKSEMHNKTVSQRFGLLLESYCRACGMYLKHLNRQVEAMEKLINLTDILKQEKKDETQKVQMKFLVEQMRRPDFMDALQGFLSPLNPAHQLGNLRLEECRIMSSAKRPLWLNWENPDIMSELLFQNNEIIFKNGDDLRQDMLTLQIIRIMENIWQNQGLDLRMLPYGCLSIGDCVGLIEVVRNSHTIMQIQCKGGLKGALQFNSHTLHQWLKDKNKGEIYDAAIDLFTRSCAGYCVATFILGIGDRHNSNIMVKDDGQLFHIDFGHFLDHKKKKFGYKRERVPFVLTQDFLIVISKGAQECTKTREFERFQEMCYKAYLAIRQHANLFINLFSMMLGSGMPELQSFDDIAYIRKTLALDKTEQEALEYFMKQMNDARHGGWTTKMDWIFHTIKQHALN
T1 sequence (P27986 322-694 partner limits assumed): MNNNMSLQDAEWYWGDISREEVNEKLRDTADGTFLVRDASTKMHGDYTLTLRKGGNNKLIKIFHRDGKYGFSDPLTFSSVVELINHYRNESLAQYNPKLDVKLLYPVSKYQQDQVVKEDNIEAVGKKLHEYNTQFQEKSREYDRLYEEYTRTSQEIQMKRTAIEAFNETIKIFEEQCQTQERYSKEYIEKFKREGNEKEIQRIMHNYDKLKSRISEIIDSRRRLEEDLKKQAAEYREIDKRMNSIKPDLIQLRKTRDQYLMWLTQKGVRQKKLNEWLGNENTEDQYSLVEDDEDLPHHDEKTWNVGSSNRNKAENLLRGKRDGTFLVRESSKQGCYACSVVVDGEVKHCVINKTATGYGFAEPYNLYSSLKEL

Row | Structure (SMILES) | IC50 [1, 3] [nM] | Kd [2] [nM] | IC50 [1, 4] [nM]
1 | Cc1c([C@@H](NC(=O)Nc2ccc(C(=O)N3CC(F)C3)nc2)C(C)C)oc2ccc(F)cc12 [Compound 64, (S)-1-(1-(5-fluoro-3-methylbenzofuran-2-yl)-2-methylpropyl)-3-(6-(3-fluoroazetidine-1-carbonyl)pyridin-3-yl)urea] | 1000 to 5000 | < 100 | –
2 | Cc1c([C@@H](NC(=O)N[C@H]2CCC[C@H](C(N)=O)C2)C(C)C)oc2ccc(F)cc12 [Compound 31, (1S,3S)-3-(3-((S)-1-(5-fluoro-3-methylbenzofuran-2-yl)-2-methylpropyl)ureido) cyclohexane-1-carboxamide] | > 5000 | 250 to 500 | –
3 | CCS(=O)(=O)c1ccc(NC(=O)N[C@H](C)c2oc3ccc(F)cc3c2C)cc1 [Compound 13, (R)-1-(4-(ethylsulfonyl)phenyl)-3-(1-(5-fluoro-3-methylbenzofuran-2-yl)ethyl)urea] | > 5000 | ≥ 500 | –
4 | Cc1c([C@@H](NC(=O)Nc2ccc(N)nc2)C(C)C)oc2ccc(F)cc12 [Compound 38, (S)-1-(6-aminopyridin-3-yl)-3-(1-(5-fluoro-3-methylbenzofuran-2-yl)-2-methylpropyl)urea] | < 1000 | 100 to 250 | –
5 | Cc1c([C@@H](NC(=O)Nc2cncc(C#N)c2)C(C)C)oc2ccc(F)cc12 [Compound 35, (S)-1-(5-cyanopyridin-3-yl)-3-(1-(5-fluoro-3-methylbenzofuran-2-yl)-2-methylpropyl)urea] | 1000 to 5000 | 250 to 500 | –
6 | Cc1c(C(NC(=O)Nc2cccc(C(N)=O)c2)C(C)C)oc2ccc(F)c(F)c12 (racemic) [Compound 54, 3-(3-(1-(4,5-difluoro-3-methylbenzofuran-2-yl)-2-methylpropyl)ureido)benzamide] | > 5000 | 100 to 250 | –
7 | Cc1c([C@@H](NC(=O)Nc2cncc(C(=O)N(C)C)c2)C(C)C)oc2ccc(F)cc12 [Compound 56, (S)-5-(3-(1-(5-fluoro-3-methylbenzofuran-2-yl)-2-methylpropyl)ureido)-N,N-dimethylnicotinamide] | < 1000 | < 100 | –
8 | Cc1c([C@@H](NC(=O)Nc2ccc(C(=O)N(C)C)nc2)C(C)C)oc2ccc(F)cc12 [Compound 65, (S)-5-(3-(1-(5-fluoro-3-methylbenzofuran-2-yl)-2-methylpropyl)ureido)-N,N-dimethylpicolinamide] | 1000 to 5000 | 100 to 250 | –
9 | Cc1c([C@@H](NC(=O)Nc2cccnc2)C(C)C)oc2ccc(F)cc12 [Compound 1, (S)-1-(1-(5-fluoro-3-methylbenzofuran-2-yl)-2-methylpropyl)-3-(pyridin-3-yl)urea] | 1000 to 5000 | 250 to 500 | –
10 | Cc1c([C@@H](C)NC(=O)Nc2ccc(S(N)(=O)=O)cc2)oc2ccc(F)cc12 [Compound 12, (R)-4-(3-(1-(5-fluoro-3-methylbenzofuran-2-yl)ethyl)ureido) benzenesulfonamide] | – | ≥ 500 | 1000 to 5000
11 | Cc1c([C@@H](NC(=O)Nc2ccnc(C(N)=O)c2)C(C)C)oc2ccc(F)cc12 [Compound 40, (S)-4-(3-(1-(5-fluoro-3-methylbenzofuran-2-yl)-2-methylpropyl)ureido)picolinamide] | 1000 to 5000 | 250 to 500 | –
12 | Cc1c([C@@H](NC(=O)Nc2ccc(N3CCC3)nc2)C(C)C)oc2ccc(F)cc12 [Compound 71, (S)-1-(6-(azetidin-1-yl)pyridin-3-yl)-3-(1-(5-fluoro-3-methylbenzofuran-2-yl)-2-methylpropyl) urea] | < 1000 | < 100 | –
13 | CNC(=O)c1cncc(NC(=O)N[C@H](c2oc3ccc(F)cc3c2C)C(C)C)c1 [Compound 60, (S)-5-(3-(1-(5-fluoro-3-methylbenzofuran-2-yl)-2-methylpropyl)ureido)-N-methylnicotinamide] | 1000 to 5000 | 100 to 250 | –
14 | Cc1c([C@@H](NC(=O)Nc2cncc(C(=O)N3CCC3)c2)C(C)C)oc2ccc(F)cc12 [Compound 63, (S)-1-(5-(azetidine-1-carbonyl)pyridin-3-yl)-3-(1-(5-fluoro-3-methylbenzofuran-2-yl)-2-methylpropyl)urea] | < 1000 | < 100 | –
15 | Cc1c([C@@H](NC(=O)N[C@@H]2CCC[C@@H](C(N)=O)C2)C(C)C)oc2ccc(F)cc12 (single isomer, unassigned) [Compound 32] | > 5000 | 100 to 250 | –
16 | Cc1c([C@@H](NC(=O)Nc2ccc(C(N)=O)nc2)C(C)C)oc2ccc(F)cc12 [Compound 41, (S)-5-(3-(1-(5-fluoro-3-methylbenzofuran-2-yl)-2-methylpropyl)ureido)picolinamide] | < 1000 | < 100 | –
17 | COC(=O)N1CCC(NC(=O)NC(c2oc3ccc(F)cc3c2C)C(C)C)CC1 (single isomer, unassigned) [Compound 36] | > 5000 | ≥ 500 | –

Row | Structure (SMILES) | IC50 [1, 3] [nM] | Kd [2] [nM] | IC50 [1, 4] [nM]
18 | Cc1c([C@@H](NC(=O)Nc2ccc3c(c2)C(=O)NC3)C(C)C)oc2ccc(F)cc12 [Compound 34, (S)-1-(1-(5-fluoro-3-methylbenzofuran-2-yl)-2-methylpropyl)-3-(3-oxoisoindolin-5-yl)urea] | 1000 to 5000 | < 100 | –
19 | Cc1c([C@@H](NC(=O)Nc2cccc(C(=O)N(C)C)c2)C(C)C)oc2ccc(F)cc12 [Compound 22, (S)-3-(3-(1-(5-fluoro-3-methylbenzofuran-2-yl)-2-methylpropyl)ureido)-N,N-dimethylbenzamide] | 1000 to 5000 | < 100 | –
20 | Cc1c([C@H](C)NC(=O)Nc2cccc(C(N)=O)c2)oc2ccc(F)cc12 [Compound 3, (S)-3-(3-(1-(5-fluoro-3-methylbenzofuran-2-yl)ethyl)ureido) benzamide] | > 5000 | ≥ 500 | –
21 | Cc1c([C@@H](NC(=O)Nc2cccc(C(N)=O)c2)C(C)C)oc2c(F)cc(F)cc12 [Compound 52, (S)-3-(3-(1-(5,7-difluoro-3-methylbenzofuran-2-yl)-2-methylpropyl)ureido)benzamide] | < 1000 | < 100 | –
22 | Cc1c(C(NC(=O)Nc2cnc(N3CCC3)nc2)C(F)(F)F)oc2ccc(F)cc12 (single isomer, unassigned) [Compound 69, 1-(2-(azetidin-1-yl)pyrimidin-5-yl)-3-(2,2,2-trifluoro-1-(5-fluoro-3-methylbenzofuran-2-yl)ethyl)urea] | < 1000 | < 100 | –
23 | Cc1c([C@@H](NC(=O)Nc2cncc(C(=O)O)c2)C(C)C)oc2ccc(F)cc12 [Compound 62, (S)-5-(3-(1-(5-fluoro-3-methylbenzofuran-2-yl)-2-methylpropyl)ureido)nicotinic acid] | > 5000 | < 100 | –
24 | Cc1c([C@@H](NC(=O)Nc2ccc(S(N)(=O)=O)nc2)C2CC2)oc2ccc(F)cc12 [Compound 48, (S)-5-(3-(cyclopropyl(5-fluoro-3-methylbenzofuran-2-yl)methyl)ureido)pyridine-2-sulfonamide] | 1000 to 5000 | 100 to 250 | –
25 | Cc1c([C@@H](NC(=O)N[C@H]2CCCS(=O)(=O)C2)C(C)C)oc2ccc(F)cc12 [Compound 44, 1-((S)-1,1-dioxidotetrahydro-2H-thiopyran-3-yl)-3-((S)-1-(5-fluoro-3-methylbenzofuran-2-yl)-2-methylpropyl)urea] | 1000 to 5000 | 250 to 500 | –
26 | Cc1c([C@@H](NC(=O)Nc2cncc(C(N)=O)c2)C(C)C)oc2ccc(F)cc12 [Compound 24, (S)-5-(3-(1-(5-fluoro-3-methylbenzofuran-2-yl)-2-methylpropyl)ureido) nicotinamide] | < 1000 | < 100 | –
27 | Cc1c([C@@H](NC(=O)Nc2cn[nH]c2)C(C)C)oc2ccc(F)cc12 [Compound 47, (S)-1-(1-(5-fluoro-3-methylbenzofuran-2-yl)-2-methylpropyl)-3-(1H-pyrazol-4-yl)urea] | 1000 to 5000 | 100 to 250 | –
28 | Cc1c([C@@H](NC(=O)N[C@H]2CCCN(S(C)(=O)=O)C2)C(C)C)oc2ccc(F)cc12 (single isomer, unassigned) [Compound 20] | 1000 to 5000 | 100 to 250 | –
29 | Cc1c([C@@H](NC(=O)Nc2cnc(N)nc2)C(C)C)oc2ccc(F)cc12 [Compound 66, (S)-1-(2-aminopyrimidin-5-yl)-3-(1-(5-fluoro-3-methylbenzofuran-2-yl)-2-methylpropyl)urea] | – | < 100 | 1000 to 5000
30 | Cc1c([C@@H](NC(=O)Nc2cnc(N3CCC3)nc2)C(C)C)oc2ccc(F)cc12 [Compound 74] | < 1000 | < 100 | –
31 | Cc1c(C(NC(=O)Nc2cnc(N)nc2)C(F)(F)F)oc2ccc(F)cc12 (racemic) [Compound 68, 1-(2-aminopyrimidin-5-yl)-3-(2,2,2-trifluoro-1-(5-fluoro-3-methylbenzofuran-2-yl)ethyl)urea] | < 1000 | < 100 | –
32 | Cc1c([C@@H](NC(=O)Nc2ccc3c(c2)CNC3=O)C(C)C)oc2ccc(F)cc12 [Compound 33, (S)-1-(1-(5-fluoro-3-methylbenzofuran-2-yl)-2-methylpropyl)-3-(1-oxoisoindolin-5-yl)urea] | < 1000 | < 100 | –
33 | Cc1c([C@@H](NC(=O)Nc2cccc(S(C)(=N)=O)c2)C(C)C)oc2ccc(F)cc12 (single isomer, unassigned) [Compound 29] | 1000 to 5000 | 100 to 250 | –
